Tested on: MV-4-11 cells
Assay: Gene expression microarray analysis (Affymetrix PrimeView) and GSEA
Format: cell-based, human
Set-up: RFU PODN (11730768_x_at) / Fold change /veh PODN (11730768_x_at) / RFU LINC00158 (11744669_a_at) / Fold change /veh LINC00158 (11744669_a_at) / RFU DUSP10 (11751237_a_at) / Fold change /veh DUSP10 (11751237_a_at) / RFU ID3 (11757404_x_at) / Fold change /veh ID3 (11757404_x_at) / RFU PLEKHG5 (11737974_s_at) / Fold change /veh PLEKHG5 (11737974_s_at) / RFU LRRC4B (11730491_at) / Fold change /veh LRRC4B (11730491_at) / RFU GIMAP4 (11747438_a_at) / Fold change /veh GIMAP4 (11747438_a_at) / RFU KRT8 (11758183_x_at) / Fold change /veh KRT8 (11758183_x_at) / RFU CNN1 (11734310_a_at) / Fold change /veh CNN1 (11734310_a_at) / RFU VPS37D (11726825_at) / Fold change /veh VPS37D (11726825_at) / RFU C10orf10 (11716522_x_at) / Fold change /veh C10orf10 (11716522_x_at) / RFU KIR2DL2 /// KIR2DL4 /// KIR2DL5A /// KIR2DL5B /// KIR2DS1 /// KIR2DS2 /// KIR2DS3 /// KIR2DS4 /// KIR3DL3 /// KIR3DL3 /// KIR3DS1 (11738374_at) / Fold change /veh KIR2DL2 /// KIR2DL4 /// KIR2DL5A /// KIR2DL5B /// KIR2DS1 /// KIR2DS2 /// KIR2DS3 /// KIR2DS4 /// KIR3DL3 /// KIR3DL3 /// KIR3DS1 (11738374_at) / RFU C1QL1 (11718748_at) / Fold change /veh C1QL1 (11718748_at) / RFU TMPRSS4 (11747572_a_at) / Fold change /veh TMPRSS4 (11747572_a_at) / RFU HAMP (11756126_x_at) / Fold change /veh HAMP (11756126_x_at) / RFU RNFT2 (11725882_a_at) / Fold change /veh RNFT2 (11725882_a_at) / RFU NR4A2 (11747474_a_at) / Fold change /veh NR4A2 (11747474_a_at) / RFU ABCC12 (11746883_a_at) / Fold change /veh ABCC12 (11746883_a_at) / RFU TMEM136 (11760407_x_at) / Fold change /veh TMEM136 (11760407_x_at) / RFU CLDN22 /// WWC2 (11732394_at) / Fold change /veh CLDN22 /// WWC2 (11732394_at) / RFU HLA-DPB1 (11760878_x_at) / Fold change /veh HLA-DPB1 (11760878_x_at) / RFU SPINT1 (11716480_a_at) / Fold change /veh SPINT1 (11716480_a_at) / RFU GAP43 (11754022_s_at) / Fold change /veh GAP43 (11754022_s_at) / RFU A4GNT (11735810_at) / Fold change /veh A4GNT (11735810_at) / RFU PRB3 (11715151_x_at) / Fold change /veh PRB3 (11715151_x_at) / RFU TUBB4B (11761932_at) / Fold change /veh TUBB4B (11761932_at) / RFU CAPN14 (11732068_a_at) / Fold change /veh CAPN14 (11732068_a_at) / RFU TMCC2 (11721928_a_at) / Fold change /veh TMCC2 (11721928_a_at) / RFU IRGQ (11745062_a_at) / Fold change /veh IRGQ (11745062_a_at) / RFU FAM174B (11720279_a_at) / Fold change /veh FAM174B (11720279_a_at) / RFU TMPRSS4 (11748680_a_at) / Fold change /veh TMPRSS4 (11748680_a_at) / RFU FAM212B (11763350_a_at) / Fold change /veh FAM212B (11763350_a_at) / RFU PLEKHG5 (11743358_a_at) / Fold change /veh PLEKHG5 (11743358_a_at) / RFU ZSCAN30 (11745921_a_at) / Fold change /veh ZSCAN30 (11745921_a_at) / RFU CMKLR1 (11741424_a_at) / Fold change /veh CMKLR1 (11741424_a_at) / RFU LOC101060620 /// MAPK8IP1 (11723275_at) / Fold change /veh LOC101060620 /// MAPK8IP1 (11723275_at) / RFU SPTSSB (11747773_x_at) / Fold change /veh SPTSSB (11747773_x_at) / RFU PRSS12 (11739890_at) / Fold change /veh PRSS12 (11739890_at) / RFU BIN1 (11741810_x_at) / Fold change /veh BIN1 (11741810_x_at) / RFU WNT11 (11732464_a_at) / Fold change /veh WNT11 (11732464_a_at) / RFU C10orf10 (11716521_a_at) / Fold change /veh C10orf10 (11716521_a_at) / RFU C5orf56 (11738089_at) / Fold change /veh C5orf56 (11738089_at) / RFU CYB561 (11721691_x_at) / Fold change /veh CYB561 (11721691_x_at) / RFU ANKRD19P (11752326_a_at) / Fold change /veh ANKRD19P (11752326_a_at) / RFU OR2T12 /// OR2T33 /// OR2T8 (11738714_s_at) / Fold change /veh OR2T12 /// OR2T33 /// OR2T8 (11738714_s_at) / RFU VCAN (11748164_a_at) / Fold change /veh VCAN (11748164_a_at) / RFU JSRP1 (11732532_at) / Fold change /veh JSRP1 (11732532_at) / RFU KRTAP10-11 (11738290_x_at) / Fold change /veh KRTAP10-11 (11738290_x_at) / RFU MYO3A (11730013_a_at) / Fold change /veh MYO3A (11730013_a_at) / RFU EBF3 (11725865_a_at) / Fold change /veh EBF3 (11725865_a_at) / RFU CAMK2N1 (11719241_x_at) / Fold change /veh CAMK2N1 (11719241_x_at) / RFU C5orf56 (11738088_a_at) / Fold change /veh C5orf56 (11738088_a_at) / RFU OLFML3 (11715873_a_at) / Fold change /veh OLFML3 (11715873_a_at) / RFU LOC100653217 /// NTM (11731650_a_at) / Fold change /veh LOC100653217 /// NTM (11731650_a_at) / RFU MAPK11 (11762145_a_at) / Fold change /veh MAPK11 (11762145_a_at) / RFU FIZ1 (11724087_x_at) / Fold change /veh FIZ1 (11724087_x_at) / RFU OASL (11726364_x_at) / Fold change /veh OASL (11726364_x_at) / RFU SOX15 (11748057_x_at) / Fold change /veh SOX15 (11748057_x_at) / RFU CD79A (11719716_a_at) / Fold change /veh CD79A (11719716_a_at) / RFU HIST1H1D (11736915_at) / Fold change /veh HIST1H1D (11736915_at) / RFU CASKIN2 (11723855_a_at) / Fold change /veh CASKIN2 (11723855_a_at) / RFU LOC730098 (11760151_x_at) / Fold change /veh LOC730098 (11760151_x_at) / RFU OR4N2 (11742367_at) / Fold change /veh OR4N2 (11742367_at) / RFU PRRT2 (11749266_a_at) / Fold change /veh PRRT2 (11749266_a_at) / RFU SNX32 (11753110_a_at) / Fold change /veh SNX32 (11753110_a_at) / RFU CDHR5 (11726645_a_at) / Fold change /veh CDHR5 (11726645_a_at) / RFU RCAN1 (11760418_a_at) / Fold change /veh RCAN1 (11760418_a_at) / RFU FAM167A (11723789_a_at) / Fold change /veh FAM167A (11723789_a_at) / RFU FAM26E (11764081_at) / Fold change /veh FAM26E (11764081_at) / RFU ISYNA1 (11749810_s_at) / Fold change /veh ISYNA1 (11749810_s_at) / RFU ACY1 (11761880_at) / Fold change /veh ACY1 (11761880_at) / RFU 11764098_at / Fold change /veh 11764098_at / RFU SAMD14 (11745864_x_at) / Fold change /veh SAMD14 (11745864_x_at) / RFU NPB (11741838_a_at) / Fold change /veh NPB (11741838_a_at) / RFU TMPRSS6 (11731388_a_at) / Fold change /veh TMPRSS6 (11731388_a_at) / RFU KRTAP10-2 (11738614_at) / Fold change /veh KRTAP10-2 (11738614_at) / RFU ARHGAP8 /// PRR5-ARHGAP8 (11727945_x_at) / Fold change /veh ARHGAP8 /// PRR5-ARHGAP8 (11727945_x_at) / RFU KRTAP5-7 /// NADSYN1 (11734609_at) / Fold change /veh KRTAP5-7 /// NADSYN1 (11734609_at) / RFU RASL12 (11751679_a_at) / Fold change /veh RASL12 (11751679_a_at) / RFU CDKN2B (11736163_a_at) / Fold change /veh CDKN2B (11736163_a_at) / RFU PRF1 (11729649_at) / Fold change /veh PRF1 (11729649_at) / RFU, ZNF638 /// ZNF638-IT1 / Fold change vs veh, ZNF638 /// ZNF638-IT1 / RFU, PANK3 / Fold change vs veh, PANK3 / RFU, SH3YL1 / Fold change vs veh, SH3YL1 / RFU, ZEB2 / Fold change vs veh, ZEB2 / RFU, NRIP1 / Fold change vs veh, NRIP1 / RFU, PTTG1IP / Fold change vs veh, PTTG1IP / RFU, CAPN2 / Fold change vs veh, CAPN2 / RFU, MED14 / Fold change vs veh, MED14 / RFU, SNORA58 / Fold change vs veh, SNORA58 / RFU, C1orf63 / Fold change vs veh, C1orf63 / RFU, LRRFIP1 / Fold change vs veh, LRRFIP1 / RFU, NDUFAF7 / Fold change vs veh, NDUFAF7 / RFU, SLC12A2 / Fold change vs veh, SLC12A2 / RFU, IBTK / Fold change vs veh, IBTK / RFU, ESF1 / Fold change vs veh, ESF1 / Fold change vs veh, TMEM50B / RFU, TAOK1 / Fold change vs veh, TAOK1 / RFU, ACBD3 / Fold change vs veh, ACBD3 / RFU, TMA16 / Fold change vs veh, TMA16 / RFU, RWDD3 / Fold change vs veh, RWDD3 / RFU, BCAT1 / Fold change vs veh, BCAT1 / RFU, EDEM3 / Fold change vs veh, EDEM3 / RFU, TMEM33 / Fold change vs veh, TMEM33 / RFU, WDR75 / Fold change vs veh, WDR75 / RFU, AHCTF1 / Fold change vs veh, AHCTF1 / RFU, TFRC / Fold change vs veh, TFRC / RFU, ZDHHC17 / Fold change vs veh, ZDHHC17 / RFU, NOM1 / Fold change vs veh, NOM1 / RFU, ARL8B / Fold change vs veh, ARL8B / RFU, ZBTB11 / Fold change vs veh, ZBTB11 / RFU, TAMM41 / Fold change vs veh, TAMM41 / RFU, KIAA1704 /// LOC100996395 / Fold change vs veh, KIAA1704 /// LOC100996395 / RFU, ING1 / Fold change vs veh, ING1 / RFU, TRMT61B / Fold change vs veh, TRMT61B / RFU, FUBP3 / Fold change vs veh, FUBP3 / RFU, TP53 / Fold change vs veh, TP53 / RFU, TNKS2 / Fold change vs veh, TNKS2 / RFU, ZFP14 / Fold change vs veh, ZFP14 / RFU, ACTR2 / Fold change vs veh, ACTR2 / RFU, PPP3R1 / Fold change vs veh, PPP3R1 / RFU, PIK3R1 / Fold change vs veh, PIK3R1 / RFU, HNRNPA1 / Fold change vs veh, HNRNPA1 / RFU, RNF170 / Fold change vs veh, RNF170 / RFU, ZNF28 / Fold change vs veh, ZNF28 / RFU, RNGTT / Fold change vs veh, RNGTT / RFU, OGT / Fold change vs veh, OGT / RFU, BRD1 / Fold change vs veh, BRD1 / RFU, MARS / Fold change vs veh, MARS / RFU, ZNF655 / Fold change vs veh, ZNF655 / RFU, FAHD1 / Fold change vs veh, FAHD1 / RFU, BDP1 / Fold change vs veh, BDP1 / RFU, LRRCC1 / Fold change vs veh, LRRCC1 / RFU, ARID1A / Fold change vs veh, ARID1A / RFU, ZNF146 / Fold change vs veh, ZNF146 / RFU, ZNF330 / Fold change vs veh, ZNF330 / RFU, GPN3 / Fold change vs veh, GPN3 / RFU, C9orf123 / Fold change vs veh, C9orf123 / RFU, N4BP2L2 / Fold change vs veh, N4BP2L2 / RFU, ARFIP1 / Fold change vs veh, ARFIP1 / RFU, FAM179B / Fold change vs veh, FAM179B / RFU, BCL10 / Fold change vs veh, BCL10 / RFU, UHRF1BP1L / Fold change vs veh, UHRF1BP1L / RFU, BET1 / Fold change vs veh, BET1 / RFU, CNOT2 / Fold change vs veh, CNOT2 / RFU, ZNF268 / Fold change vs veh, ZNF268 / Fold change vs veh, ZNF507 / RFU, DGCR2 / Fold change vs veh, DGCR2 / RFU, WDSUB1 / Fold change vs veh, WDSUB1 / Fold change vs veh, HSP90B1 /// MIR3652 / RFU, ADSS / Fold change vs veh, ADSS / RFU, GK / Fold change vs veh, GK / RFU, ZNF148 / Fold change vs veh, ZNF148 / RFU, TAF9 / Fold change vs veh, TAF9 / RFU, SLC1A5 / Fold change vs veh, SLC1A5 / RFU, SLMO2 / Fold change vs veh, SLMO2 / RFU, ABCC4 / Fold change vs veh, ABCC4 / RFU, LOC101060439 /// RAP1B / Fold change vs veh, LOC101060439 /// RAP1B / RFU, RFX7 / Fold change vs veh, RFX7 / RFU, GTPBP10 / Fold change vs veh, GTPBP10 / RFU, CNEP1R1 / Fold change vs veh, CNEP1R1 / RFU, BIVM-ERCC5 /// ERCC5 / Fold change vs veh, BIVM-ERCC5 /// ERCC5 / RFU, ILF3 / Fold change vs veh, ILF3 / RFU 11762660_at / Fold change /veh 11762660_at / RFU VCAN (11757783_s_at) / Fold change /veh VCAN (11757783_s_at) / RFU DDX43 (11728927_at) / Fold change /veh DDX43 (11728927_at) / RFU KRT8 (11758188_x_at) / Fold change /veh KRT8 (11758188_x_at) / RFU NKD1 (11759106_at) / Fold change /veh NKD1 (11759106_at) / RFU SRD5A1 (11742802_a_at) / Fold change /veh SRD5A1 (11742802_a_at) / RFU TPSAB1 /// TPSB2 (11721975_s_at) / Fold change /veh TPSAB1 /// TPSB2 (11721975_s_at) / RFU GSTM3 (11746129_a_at) / Fold change /veh GSTM3 (11746129_a_at) / RFU IL23R (11737362_x_at) / Fold change /veh IL23R (11737362_x_at) / RFU TMEM51 (11727254_a_at) / Fold change /veh TMEM51 (11727254_a_at) / RFU PIWIL2 (11732686_x_at) / Fold change /veh PIWIL2 (11732686_x_at) / RFU ORM1 (11744905_x_at) / Fold change /veh ORM1 (11744905_x_at) / RFU CCDC152 (11743942_at) / Fold change /veh CCDC152 (11743942_at) / RFU ECM1 (11717891_a_at) / Fold change /veh ECM1 (11717891_a_at) / RFU IL23R (11748794_a_at) / Fold change /veh IL23R (11748794_a_at) / RFU TNFAIP8L3 (11732012_x_at) / Fold change /veh TNFAIP8L3 (11732012_x_at) / RFU MBOAT4 (11741988_at) / Fold change /veh MBOAT4 (11741988_at) / RFU 11764193_at / Fold change /veh 11764193_at / RFU TMEM53 (11763286_at) / Fold change /veh TMEM53 (11763286_at) / RFU MAGEB2 (11727129_at) / Fold change /veh MAGEB2 (11727129_at) / RFU TMEM200A (11744735_a_at) / Fold change /veh TMEM200A (11744735_a_at) / RFU CCDC152 (11751479_a_at) / Fold change /veh CCDC152 (11751479_a_at) / RFU FAM211A (11726209_a_at) / Fold change /veh FAM211A (11726209_a_at) / RFU RGS16 (11746705_a_at) / Fold change /veh RGS16 (11746705_a_at) / RFU VCAN (11755009_s_at) / Fold change /veh VCAN (11755009_s_at) / RFU RHOB (11743442_s_at) / Fold change /veh RHOB (11743442_s_at) / RFU RGS16 (11720943_a_at) / Fold change /veh RGS16 (11720943_a_at) / RFU RGS16 (11720944_at) / Fold change /veh RGS16 (11720944_at) / RFU, VPS4B / Fold change vs veh, VPS4B / RFU, CREB1 / Fold change vs veh, CREB1 / RFU, DNAJC13 / Fold change vs veh, DNAJC13 / RFU, GNAQ / Fold change vs veh, GNAQ / RFU, CDK5R1 / Fold change vs veh, CDK5R1 / RFU, ZRANB3 / Fold change vs veh, ZRANB3 / RFU, CUL4A / Fold change vs veh, CUL4A / RFU, CCNY / Fold change vs veh, CCNY / RFU, UFL1 / Fold change vs veh, UFL1 / RFU, COG3 / Fold change vs veh, COG3 / RFU, DIAPH2 / Fold change vs veh, DIAPH2 / RFU, SKA2 / Fold change vs veh, SKA2 / RFU, AFF3 / Fold change vs veh, AFF3 / RFU, LMF1 / Fold change vs veh, LMF1 / RFU, IPO11 / Fold change vs veh, IPO11 / RFU, DFFB / Fold change vs veh, DFFB / RFU, FOXP1 / Fold change vs veh, FOXP1 / RFU, CARD8 / Fold change vs veh, CARD8 / RFU, STRN3 / Fold change vs veh, STRN3 / RFU, ADK / Fold change vs veh, ADK / RFU, RASSF2 / Fold change vs veh, RASSF2 / RFU, WIPF1 / Fold change vs veh, WIPF1 / RFU, LARP1B / Fold change vs veh, LARP1B / RFU, RASA1 / Fold change vs veh, RASA1 / RFU, RB1 / Fold change vs veh, RB1 / RFU, PPFIA1 / Fold change vs veh, PPFIA1 / RFU, MAT2A / Fold change vs veh, MAT2A / RFU, CCT5 / Fold change vs veh, CCT5 / RFU, WDR92 / Fold change vs veh, WDR92 / RFU, CUX1 / Fold change vs veh, CUX1 / RFU, TTC7A / Fold change vs veh, TTC7A / RFU, TMEM135 / Fold change vs veh, TMEM135 / RFU, DEPTOR / Fold change vs veh, DEPTOR / RFU, CPM / Fold change vs veh, CPM / RFU, DNAJB6 / Fold change vs veh, DNAJB6 / RFU, CACNA2D3 / Fold change vs veh, CACNA2D3 / RFU, DTX4 / Fold change vs veh, DTX4 / RFU, TFCP2 / Fold change vs veh, TFCP2 / RFU, GMCL1 /// GMCL1P1 / Fold change vs veh, GMCL1 /// GMCL1P1 / RFU, AEBP2 / Fold change vs veh, AEBP2 / RFU, SNHG1 /// SNORD22 /// SNORD25 /// SNORD26 /// SNORD27 /// SNORD28 /// SNORD29 /// SNORD31 / Fold change vs veh, SNHG1 /// SNORD22 /// SNORD25 /// SNORD26 /// SNORD27 /// SNORD28 /// SNORD29 /// SNORD31 / Fold change (Aza/veh), C12orf56 (ProbeSet 11735607_a_at) / Fold change (ACY-1035/veh), C12orf56 (ProbeSet 11735607_a_at) / Fold change (Aza/veh), FGFR1OP (ProbeSet 11751329_s_at) / Fold change (ACY-1035/veh), FGFR1OP (ProbeSet 11751329_s_at) / Fold change (Aza/veh), VPS36 (ProbeSet 11739960_a_at) / Fold change (ACY-1035/veh), VPS36 (ProbeSet 11739960_a_at) / RFU SYPL1 (11715823_x_at) / Fold change /veh SYPL1 (11715823_x_at) / RFU IGFBP7 (11715501_s_at) / Fold change /veh IGFBP7 (11715501_s_at) / RFU REEP3 (11722064_at) / Fold change /veh REEP3 (11722064_at) / RFU IGLL1 (11728026_x_at) / Fold change /veh IGLL1 (11728026_x_at): dose or concentration left out as unconfirmed
Settings: ProbeSet 11726703_a_at; LIST B

## Nc1ncn([C@@H]2O[C@H](CO)[C@@H](O)[C@H]2O)c(=O)n1 [azacitidine]
  Fold change vs veh, BCL10: 0.88
